Data reported in US20230338316A1, “ABBAPOLINS AS INHIBITORS AND DEGRADERS OF POLO-LIKE KINASES” (UNIVERSITY OF SOUTH CAROLINA, priority 2022, published 2023).

What was measured:
PLK1 PBD (367-603) = biological target: T1, PLK1 PBD (367-603) (Homo sapiens, UniProt P53350); test: Fluorescence polarization assay, PLK1 PBD; type: binding; conditions: Table 10; target not named at the place; read-out: in vitro binding IC50
T1 construct: PLK1 PBD (367-603) and PLK3 PBD (335-646) proteins were obtained from BPS Biosciences Inc; purchased BPS Biosciences Inc. (San Diego, CA)
Protocol: Materials were dissolved in DMSO (10 mM) and diluted from 10 nM to 600 μM (maximum of 6% DMSO tolerance in the assay). PLK1 PBD (367-603) and PLK3 PBD (335-646) proteins were obtained from BPS Biosciences Inc. (San Diego, CA); 17 ng PLK1 and 156 ng PLK3 were used per reaction. The fluorescein-tracer phospho-peptides (MAGPMQS[pT]PLNGAKK (SEQ ID NO: 1) for PLK1, and GPLATS[pT]PKNG (SEQ ID NO: 2) for PLK3) were used at a final concentration of 10 nM. Incubation was carried out at room temperature for 45 minutes. Fluorescence was measured using a DTX 880 plate reader and Multimode Analysis software (Beckman Coulter, Brea, CA). The polarization values in millipolarization (mP) units were measured at an excitation wavelength of 488 nm and an emission wavelength of 535 nm. Each data point was performed in triplicate for every experiment, and experiments were performed at least three times. An IC50 value for each compound was calculated from linear regression analysis of the plots.

[1] = Pharmacokinetics after oral gavage; type: in vivo, swiss webster mice
Protocol: FIG. 3 graphically illustrates pharmacokinetics of SCCP ID No. 6359 in swiss webster mice at a dosage of 50 mg/kg.
These reasonable PK values of the lead abbapolin compounds tested in vivo are promising and indicate optimization will lead to further improvements.

PLK1 = PLK1 (Homo sapiens, UniProt P53350); test: PLK1 degradation in HeLa cells; type: cell-based; parameters: endogenous in cells; conditions: HeLa cell line, 24, 48 and 72 hours
Protocol: For example, PC3 cells were treated with varying dosages of abbapolin 6369, and percent of PLK1 degradation was measured at 24 hours (FIGS. 8A-8B). HeLa cells were treated with 25 μM abbapolin 6369, and time points shown in the assay were 24 hours, 48 hours, and 72 hours (FIGS. 9A-9B). PC3 cells were treated with varying dosages of abbapolin 6329, and percent of PLK1 degradation was measured at 24 hours (FIGS. […]). HeLa cells were treated with varying dosages of abbapolin 6329, and time points shown in the assay were 24 hours, 48 hours, and 72 hours (FIGS. 11A-11B).

MOLT-4 = test: Single dose cell viability assay, MOLT-4; type: cell-based; conditions: MOLT-4 (Leukemia), single dose 10 μM
Protocol: (§1) Lead abbapolin compounds were tested in multiple cancer cell lines, including non-small cell lung cancer (NSCLC) cells, melanoma cells, colon cancer cells, central nervous system (CNS) cancer cells, prostate cancer cells, renal cancer cells, and breast cancer cells. Each of these cancer cells lines were sensitive to the lead abbapolin compounds in a cell viability assay, including 6184 (Table 3), 6277 (Table 4), 6279 (Table 5), 6355 (Table 6), 6359 (Table 7), 6369 (Table 8), and 6421 (Table 9).

Solubility in PBS = type: physicochemical; conditions: expressed as IP dose
CCRF-CEM = test: Single dose cell viability assay, CCRF-CEM; type: cell-based; conditions: CCRF-CEM (Leukemia), single dose 10 μM
Protocol: as §1

PLK1, sequence (P53350 whole entry): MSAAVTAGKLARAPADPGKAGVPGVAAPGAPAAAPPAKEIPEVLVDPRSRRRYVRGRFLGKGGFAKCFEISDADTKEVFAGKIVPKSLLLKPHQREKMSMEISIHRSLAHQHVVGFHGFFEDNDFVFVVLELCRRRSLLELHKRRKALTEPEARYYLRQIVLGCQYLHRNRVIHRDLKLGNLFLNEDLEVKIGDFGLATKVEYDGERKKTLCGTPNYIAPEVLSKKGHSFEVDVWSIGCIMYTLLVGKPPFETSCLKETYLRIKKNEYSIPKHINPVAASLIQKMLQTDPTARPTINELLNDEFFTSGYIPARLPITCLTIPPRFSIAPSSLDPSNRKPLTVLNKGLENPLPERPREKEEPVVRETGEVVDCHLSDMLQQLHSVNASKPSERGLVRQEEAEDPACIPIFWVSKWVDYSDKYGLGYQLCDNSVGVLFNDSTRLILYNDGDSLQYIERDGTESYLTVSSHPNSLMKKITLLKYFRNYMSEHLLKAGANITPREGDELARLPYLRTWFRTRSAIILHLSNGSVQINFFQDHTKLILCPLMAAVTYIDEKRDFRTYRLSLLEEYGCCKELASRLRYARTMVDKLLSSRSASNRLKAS
T1 sequence (P53350 367-603): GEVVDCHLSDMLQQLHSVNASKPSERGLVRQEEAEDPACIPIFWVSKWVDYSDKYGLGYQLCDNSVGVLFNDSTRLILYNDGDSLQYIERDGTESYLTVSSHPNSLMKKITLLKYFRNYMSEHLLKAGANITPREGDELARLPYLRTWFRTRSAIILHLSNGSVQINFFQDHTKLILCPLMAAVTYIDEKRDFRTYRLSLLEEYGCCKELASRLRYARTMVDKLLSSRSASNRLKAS

**Q.** Which results are given for “3-(4-octylbenzamido)phenyl phosphate [compound 6369]”?
**A.** IC50 (PLK1 PBD (367-603)): 115 µM; blood levels ([1]; 50 mg/kg by oral gavage): measurable blood levels; oral absorption / PK ([1]; mouse, in vivo, po): low oral absorption; PLK1 degradation (PLK1): degradation of PLK1; Cells Remaining (%) (MOLT-4): 58.19%; limit of solubility in PBS (Solubility in PBS): 40 mg/kg; Cells Remaining (%) (CCRF-CEM): 24.97%
